Assays:
Type in all cases: cell-based
Details in all cases: compounds at 50 nM and 500 nM
WEE1 = target: T1, WEE1 (Homo sapiens, UniProt P30291+Q96SW2); assay: Western blot degradation of WEE1 in hPBMCs (24 h)
T1 construct: The supernatant was aspirated as the extracted total cell protein; endogenous in cells; host or cells: human peripheral blood mononuclear cells (hPBMCs)
Summary of the method: (§1)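 Thawed human PBMCs, 1×10^6 cells/mL; cpd 50 nM or 500 nM, 24 h; RIPA lysis, BCA, SDS-PAGE, NC transfer, immunoblot. Readout: grayscale/internal control → % remaining; degradation = 1 − remaining.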

IKZF1 = target: T2, IKZF1 (Homo sapiens, UniProt Q13422+Q96SW2); assay: Western blot degradation of IKZF1 in hPBMCs (24 h)
T2 construct: The supernatant was aspirated as the extracted total cell protein; endogenous in cells; host or cells: human peripheral blood mononuclear cells (hPBMCs)
Summary of the method: as §1

IKZF2 = target: T3, IKZF2 (Homo sapiens, UniProt Q96SW2+Q9UKS7); assay: Western blot degradation of IKZF2 in hPBMCs (24 h)
T3 construct: The supernatant was aspirated as the extracted total cell protein; endogenous in cells; host or cells: human peripheral blood mononuclear cells (hPBMCs)
Summary of the method: as §1

IKZF3 = target: T4, IKZF3 (Homo sapiens, UniProt Q96SW2+Q9UKT9); assay: Western blot degradation of IKZF3 in hPBMCs (24 h)
T4 construct: The supernatant was aspirated as the extracted total cell protein; endogenous in cells; host or cells: human peripheral blood mononuclear cells (hPBMCs)
Summary of the method: as §1

CK1α = target: T5, CK1α (Homo sapiens, UniProt P48729+Q96SW2); assay: Western blot degradation of CK1α in hPBMCs (24 h)
T5 construct: The supernatant was aspirated as the extracted total cell protein; endogenous in cells; host or cells: human peripheral blood mononuclear cells (hPBMCs)
Summary of the method: as §1

GSPT1 = target: T6, GSPT1 (Homo sapiens, UniProt P15170+Q96SW2); assay: Western blot degradation of GSPT1 in hPBMCs (24 h)
T6 construct: The supernatant was aspirated as the extracted total cell protein; endogenous in cells; host or cells: human peripheral blood mononuclear cells (hPBMCs)
Summary of the method: as §1

T5 sequence (P48729 whole entry): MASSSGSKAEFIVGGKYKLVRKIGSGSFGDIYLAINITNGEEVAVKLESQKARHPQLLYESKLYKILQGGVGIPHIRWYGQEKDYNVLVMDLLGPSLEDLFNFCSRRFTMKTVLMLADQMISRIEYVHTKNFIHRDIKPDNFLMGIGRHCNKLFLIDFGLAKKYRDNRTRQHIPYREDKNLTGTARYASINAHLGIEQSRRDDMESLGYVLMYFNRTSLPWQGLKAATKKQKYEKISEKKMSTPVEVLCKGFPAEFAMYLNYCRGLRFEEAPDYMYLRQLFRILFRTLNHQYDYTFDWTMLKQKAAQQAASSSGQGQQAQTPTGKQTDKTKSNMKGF
T5 sequence (Q96SW2 whole entry): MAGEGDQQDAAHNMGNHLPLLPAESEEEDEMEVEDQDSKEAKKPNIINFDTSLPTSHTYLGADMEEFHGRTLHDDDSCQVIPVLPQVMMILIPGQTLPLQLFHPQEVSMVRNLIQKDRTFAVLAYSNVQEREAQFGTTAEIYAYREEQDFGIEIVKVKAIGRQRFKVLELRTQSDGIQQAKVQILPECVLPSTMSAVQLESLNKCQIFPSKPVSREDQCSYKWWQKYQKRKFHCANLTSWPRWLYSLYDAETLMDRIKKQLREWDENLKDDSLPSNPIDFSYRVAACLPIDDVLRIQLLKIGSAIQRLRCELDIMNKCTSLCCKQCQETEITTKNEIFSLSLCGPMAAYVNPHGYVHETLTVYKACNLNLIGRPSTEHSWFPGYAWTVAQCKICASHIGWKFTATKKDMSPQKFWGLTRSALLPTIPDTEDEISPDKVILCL
T5 sequence (Q16531 whole entry partner): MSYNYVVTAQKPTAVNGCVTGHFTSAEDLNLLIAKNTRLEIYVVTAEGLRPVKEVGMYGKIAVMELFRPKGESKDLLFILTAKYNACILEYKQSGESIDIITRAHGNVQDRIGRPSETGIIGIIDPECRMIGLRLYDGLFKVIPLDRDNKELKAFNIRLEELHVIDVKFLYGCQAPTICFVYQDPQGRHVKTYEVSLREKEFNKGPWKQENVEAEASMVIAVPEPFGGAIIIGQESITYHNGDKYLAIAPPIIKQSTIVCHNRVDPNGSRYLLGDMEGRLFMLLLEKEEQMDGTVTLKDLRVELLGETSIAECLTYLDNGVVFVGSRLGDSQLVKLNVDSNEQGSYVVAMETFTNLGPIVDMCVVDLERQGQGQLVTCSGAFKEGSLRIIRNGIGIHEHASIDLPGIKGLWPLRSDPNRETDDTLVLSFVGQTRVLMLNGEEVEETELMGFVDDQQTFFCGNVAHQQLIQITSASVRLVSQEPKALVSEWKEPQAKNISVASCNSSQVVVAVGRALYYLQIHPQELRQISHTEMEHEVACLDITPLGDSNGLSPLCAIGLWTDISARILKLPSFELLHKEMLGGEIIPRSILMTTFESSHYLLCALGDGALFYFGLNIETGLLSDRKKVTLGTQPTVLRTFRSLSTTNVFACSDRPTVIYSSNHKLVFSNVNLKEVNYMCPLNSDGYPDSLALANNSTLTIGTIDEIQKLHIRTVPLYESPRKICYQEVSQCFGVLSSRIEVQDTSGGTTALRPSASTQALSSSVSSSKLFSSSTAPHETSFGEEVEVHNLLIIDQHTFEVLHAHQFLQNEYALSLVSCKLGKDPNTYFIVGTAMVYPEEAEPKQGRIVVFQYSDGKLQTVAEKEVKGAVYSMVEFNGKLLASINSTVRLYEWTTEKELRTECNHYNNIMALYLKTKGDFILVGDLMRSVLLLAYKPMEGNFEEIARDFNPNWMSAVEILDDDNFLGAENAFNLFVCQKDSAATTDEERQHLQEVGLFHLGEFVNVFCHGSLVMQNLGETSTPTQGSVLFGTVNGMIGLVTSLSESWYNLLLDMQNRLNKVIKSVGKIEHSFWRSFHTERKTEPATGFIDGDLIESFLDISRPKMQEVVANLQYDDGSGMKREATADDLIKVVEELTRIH
T2 sequence (Q13422 whole entry): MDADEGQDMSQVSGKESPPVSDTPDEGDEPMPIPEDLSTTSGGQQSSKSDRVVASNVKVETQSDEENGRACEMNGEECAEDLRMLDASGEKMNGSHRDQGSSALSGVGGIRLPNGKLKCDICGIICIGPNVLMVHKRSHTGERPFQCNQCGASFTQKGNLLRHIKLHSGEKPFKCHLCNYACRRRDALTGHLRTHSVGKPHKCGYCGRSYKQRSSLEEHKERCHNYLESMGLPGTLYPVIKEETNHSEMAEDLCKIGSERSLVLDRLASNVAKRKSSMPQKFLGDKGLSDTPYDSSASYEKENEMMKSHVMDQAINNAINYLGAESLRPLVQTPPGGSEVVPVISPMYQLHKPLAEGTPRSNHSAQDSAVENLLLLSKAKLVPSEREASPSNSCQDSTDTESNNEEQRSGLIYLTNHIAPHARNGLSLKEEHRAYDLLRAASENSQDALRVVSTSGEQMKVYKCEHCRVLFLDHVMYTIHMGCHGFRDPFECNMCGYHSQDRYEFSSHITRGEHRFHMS
T2 sequence (Q96SW2 whole entry): as the sequence (Q96SW2 whole entry) above
T2 sequence (Q16531 whole entry partner): as the sequence (Q16531 whole entry partner) above
T3 sequence (Q9UKS7 whole entry): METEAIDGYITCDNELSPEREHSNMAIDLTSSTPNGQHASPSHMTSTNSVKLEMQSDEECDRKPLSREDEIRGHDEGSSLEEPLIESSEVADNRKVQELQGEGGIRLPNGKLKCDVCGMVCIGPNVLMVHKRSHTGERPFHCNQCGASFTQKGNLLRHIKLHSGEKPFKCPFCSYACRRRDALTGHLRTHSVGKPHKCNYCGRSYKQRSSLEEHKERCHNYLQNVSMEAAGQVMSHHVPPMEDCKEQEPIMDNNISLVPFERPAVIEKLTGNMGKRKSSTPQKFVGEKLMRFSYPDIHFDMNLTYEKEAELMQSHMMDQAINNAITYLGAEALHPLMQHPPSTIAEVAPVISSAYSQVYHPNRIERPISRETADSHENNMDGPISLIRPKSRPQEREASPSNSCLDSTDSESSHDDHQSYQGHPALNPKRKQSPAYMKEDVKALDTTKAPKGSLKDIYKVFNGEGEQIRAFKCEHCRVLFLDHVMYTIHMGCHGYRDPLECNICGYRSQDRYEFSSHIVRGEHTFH
T3 sequence (Q96SW2 whole entry): as the sequence (Q96SW2 whole entry) above
T3 sequence (Q16531 whole entry partner): as the sequence (Q16531 whole entry partner) above
T1 sequence (P30291 whole entry): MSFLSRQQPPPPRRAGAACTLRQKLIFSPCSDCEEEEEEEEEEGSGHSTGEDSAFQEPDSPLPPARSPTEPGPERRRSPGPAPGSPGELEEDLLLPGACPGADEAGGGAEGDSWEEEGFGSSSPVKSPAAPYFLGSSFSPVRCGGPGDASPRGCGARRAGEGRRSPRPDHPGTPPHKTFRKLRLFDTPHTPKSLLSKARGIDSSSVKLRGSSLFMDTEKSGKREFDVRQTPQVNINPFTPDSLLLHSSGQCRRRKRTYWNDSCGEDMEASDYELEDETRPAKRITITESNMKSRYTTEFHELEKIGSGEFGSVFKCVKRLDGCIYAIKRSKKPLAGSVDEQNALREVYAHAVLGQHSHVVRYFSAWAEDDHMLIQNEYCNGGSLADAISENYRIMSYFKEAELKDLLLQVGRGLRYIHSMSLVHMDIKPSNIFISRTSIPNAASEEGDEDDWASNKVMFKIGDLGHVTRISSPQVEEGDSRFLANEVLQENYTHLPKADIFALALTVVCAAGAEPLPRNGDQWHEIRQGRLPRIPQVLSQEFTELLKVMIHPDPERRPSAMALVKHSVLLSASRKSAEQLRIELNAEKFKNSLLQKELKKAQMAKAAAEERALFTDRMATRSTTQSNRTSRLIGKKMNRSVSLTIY
T1 sequence (Q96SW2 whole entry): as the sequence (Q96SW2 whole entry) above
T1 sequence (Q16531 whole entry partner): as the sequence (Q16531 whole entry partner) above
T4 sequence (Q9UKT9 whole entry): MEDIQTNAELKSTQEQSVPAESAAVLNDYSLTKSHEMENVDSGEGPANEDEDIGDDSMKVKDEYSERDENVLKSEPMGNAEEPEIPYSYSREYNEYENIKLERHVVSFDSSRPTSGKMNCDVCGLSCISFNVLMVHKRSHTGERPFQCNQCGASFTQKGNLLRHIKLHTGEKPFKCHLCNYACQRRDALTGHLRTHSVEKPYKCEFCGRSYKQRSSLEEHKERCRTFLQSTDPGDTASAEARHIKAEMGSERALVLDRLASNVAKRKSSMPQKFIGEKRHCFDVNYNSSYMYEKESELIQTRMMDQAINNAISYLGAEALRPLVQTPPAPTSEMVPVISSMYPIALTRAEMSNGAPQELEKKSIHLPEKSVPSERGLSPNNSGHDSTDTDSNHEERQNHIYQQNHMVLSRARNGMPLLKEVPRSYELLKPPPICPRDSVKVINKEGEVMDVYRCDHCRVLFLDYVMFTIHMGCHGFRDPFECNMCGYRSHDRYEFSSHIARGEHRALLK
T4 sequence (Q96SW2 whole entry): as the sequence (Q96SW2 whole entry) above
T4 sequence (Q16531 whole entry partner): as the sequence (Q16531 whole entry partner) above

SMILES | WEE1 substrate protein remaining % (WEE1) | IKZF1 substrate protein remaining % (IKZF1) | IKZF2 substrate protein remaining % (IKZF2) | IKZF3 substrate protein remaining % (IKZF3) | CK1α substrate protein remaining % (CK1α) | GSPT1 substrate protein remaining % (GSPT1)
O=C1CCN(N2C(=O)c3ccc(CN4CC=C(c5ncnc6sc(-c7ccccc7)cc56)CC4)cc3C2=O)C(=O)N1 [GT-08430, 2-(2,4-dioxotetrahydropyrimidin-1(2H)-yl)-5-((4-(6-phenylthieno[2,3-d]pyrimidin-4-yl)-3,6-dihydropyridin-1(2H)-yl)methyl)isoindoline-1,3-dione] | A (0% ≤ substrate protein remaining % ≤80%) | B (80%< substrate protein remaining % ≤100%) | B (80%< substrate protein remaining % ≤100%) | B (80%< substrate protein remaining % ≤100%) | B (80%< substrate protein remaining % ≤100%) | B (80%< substrate protein remaining % ≤100%)
O=C1CCN(N2C(=O)c3ccc(CN4CC=C(c5ncnc6scc(-c7ccccc7)c56)CC4)cc3C2=O)C(=O)N1 [GT-08431, 2-(2,4-dioxotetrahydropyrimidin-1(2H)-yl)-5-((4-(5-phenylthieno[2,3-d]pyrimidin-4-yl)-3,6-dihydropyridin-1(2H)-yl)methyl)isoindoline-1,3-dione] | A (0% ≤ substrate protein remaining % ≤80%) | B (80%< substrate protein remaining % ≤100%) | A (0% ≤ substrate protein remaining % ≤80%) | B (80%< substrate protein remaining % ≤100%) | B (80%< substrate protein remaining % ≤100%) | B (80%< substrate protein remaining % ≤100%)
Cc1nc(C2=CCN(Cc3ccc4c(c3)C(=O)N(N3CCC(=O)NC3=O)C4=O)CC2)c2c3c(sc2n1)CCCC3 [GT-08432, 2-(2,4-dioxotetrahydropyrimidin-1(2H)-yl)-5-((4-(2-methyl-5,6,7,8-tetrahydrobenzo[4,5]thieno[2,3-d]pyrimidin-4-yl)-3,6-dihydropyridin-1(2H)-yl)methyl)isoindoline-1,3-dione] | B (80%< substrate protein remaining % ≤100%) | B (80%< substrate protein remaining % ≤100%) | B (80%< substrate protein remaining % ≤100%) | A (0% ≤ substrate protein remaining % ≤80%) | A (0% ≤ substrate protein remaining % ≤80%) | A (0% ≤ substrate protein remaining % ≤80%)
O=C1CCN(N2C(=O)c3ccc(CN4CC=C(c5ncnc6sc7c(c56)CCCC7)CC4)cc3C2=O)C(=O)N1 [GT-08433, 2-(2,4-dioxotetrahydropyrimidin-1(2H)-yl)-5-((4-(5,6,7,8-tetrahydrobenzo[4,5]thieno[2,3-d]pyrimidin-4-yl)-3,6-dihydropyridin-1(2H)-yl)methyl)isoindoline-1,3-dione] | B (80%< substrate protein remaining % ≤100%) | B (80%< substrate protein remaining % ≤100%) | B (80%< substrate protein remaining % ≤100%) | A (0% ≤ substrate protein remaining % ≤80%) | A (0% ≤ substrate protein remaining % ≤80%) | A (0% ≤ substrate protein remaining % ≤80%)
O=C1CCN(N2C(=O)c3ccc(CN4CC=C(c5ncnc6sc7c(c56)CCC7)CC4)cc3C2=O)C(=O)N1 [GT-08434, 5-((4-(6,7-dihydro-5H-cyclopenta[4,5]thieno[2,3-d]pyrimidin-4-yl)-3,6-dihydropyridin-1(2H)-yl)methyl)-2-(2,4-dioxotetrahydropyrimidin-1(2H)-yl)isoindoline-1,3-dione] | B (80%< substrate protein remaining % ≤100%) | A (0% ≤ substrate protein remaining % ≤80%) | A (0% ≤ substrate protein remaining % ≤80%) | A (0% ≤ substrate protein remaining % ≤80%) | A (0% ≤ substrate protein remaining % ≤80%) | A (0% ≤ substrate protein remaining % ≤80%)
Cc1nc(C2=CCN(Cc3ccc4c(c3)C(=O)N(N3CCC(=O)NC3=O)C4=O)CC2)c2c3c(sc2n1)CCC3 [GT-08435, 2-(2,4-dioxotetrahydropyrimidin-1(2H)-yl)-5-((4-(2-methyl-6,7-dihydro-5H-cyclopenta[4,5]thieno[2,3-d]pyrimidin-4-yl)-3,6-dihydropyridin-1(2H)-yl)methyl)isoindoline-1,3-dione] | A (0% ≤ substrate protein remaining % ≤80%) | A (0% ≤ substrate protein remaining % ≤80%) | B (80%< substrate protein remaining % ≤100%) | A (0% ≤ substrate protein remaining % ≤80%) | B (80%< substrate protein remaining % ≤100%) | A (0% ≤ substrate protein remaining % ≤80%)
Cc1nc(C2=CCN(Cc3ccc4c(c3)CN(N3CCC(=O)NC3=O)C4=O)CC2)c2c3c(sc2n1)CCC3 [GT-08437, 1-(5-((4-(2-methyl-6,7-dihydro-5H-cyclopenta[4,5]thieno[2,3-d]pyrimidin-4-yl)-3,6-dihydropyridin-1(2H)-yl)methyl)-1-oxoisoindolin-2-yl)dihydropyrimidine-2,4(1H,3H)-dione] | A (0% ≤ substrate protein remaining % ≤80%) | A (0% ≤ substrate protein remaining % ≤80%) | B (80%< substrate protein remaining % ≤100%) | A (0% ≤ substrate protein remaining % ≤80%) | B (80%< substrate protein remaining % ≤100%) | A (0% ≤ substrate protein remaining % ≤80%)
O=C1CCN(N2Cc3cc(CN4CC=C(c5ncc6ccsc6n5)CC4)ccc3C2=O)C(=O)N1 [GT-08438, 1-(1-oxo-5-((4-(thieno[2,3-d]pyrimidin-2-yl)-3,6-dihydropyridin-1(2H)-yl)methyl)isoindolin-2-yl)dihydropyrimidine-2,4(1H,3H)-dione] | A (0% ≤ substrate protein remaining % ≤80%) | A (0% ≤ substrate protein remaining % ≤80%) | B (80%< substrate protein remaining % ≤100%) | A (0% ≤ substrate protein remaining % ≤80%) | B (80%< substrate protein remaining % ≤100%) | A (0% ≤ substrate protein remaining % ≤80%)
O=C1CCN(N2Cc3cc(CN4CCN(c5nc(Cl)nc6c5SCC6)CC4)ccc3C2=O)C(=O)N1 [GT-08439, 1-(5-((4-(2-chloro-6,7-dihydrothieno[3,2-d]pyrimidin-4-yl)piperazin-1-yl)methyl)-1-oxoisoindolin-2-yl)dihydropyrimidine-2,4(1H,3H)-dione] | A (0% ≤ substrate protein remaining % ≤80%) | A (0% ≤ substrate protein remaining % ≤80%) | B (80%< substrate protein remaining % ≤100%) | A (0% ≤ substrate protein remaining % ≤80%) | B (80%< substrate protein remaining % ≤100%) | A (0% ≤ substrate protein remaining % ≤80%)
O=C1CCN(N2Cc3cc(CN4CCN(c5ncnc6ccsc56)CC4)ccc3C2=O)C(=O)N1 [GT-08443, 1-(1-oxo-5-((4-(thieno[3,2-d]pyrimidin-4-yl)piperazin-1-yl)methyl)isoindolin-2-yl)dihydropyrimidine-2,4(1H,3H)-dione] | A (0% ≤ substrate protein remaining % ≤80%) | B (80%< substrate protein remaining % ≤100%) | B (80%< substrate protein remaining % ≤100%) | B (80%< substrate protein remaining % ≤100%) | B (80%< substrate protein remaining % ≤100%) | B (80%< substrate protein remaining % ≤100%)
O=C1CCN(N2Cc3cc(CN4CCN(c5nc(Cl)nc6ccsc56)CC4)ccc3C2=O)C(=O)N1 [GT-08444, 1-(5-((4-(2-chlorothieno[3,2-d]pyrimidin-4-yl)piperazin-1-yl)methyl)-1-oxoisoindolin-2-yl)dihydropyrimidine-2,4(1H,3H)-dione] | A (0% ≤ substrate protein remaining % ≤80%) | B (80%< substrate protein remaining % ≤100%) | B (80%< substrate protein remaining % ≤100%) | B (80%< substrate protein remaining % ≤100%) | B (80%< substrate protein remaining % ≤100%) | B (80%< substrate protein remaining % ≤100%)
O=C1CCN(N2Cc3cc(CN4CCN(c5nc(N6CCOCC6)nc6ccsc56)CC4)ccc3C2=O)C(=O)N1 [GT-08446, 1-(5-((4-(2-morpholinothieno[3,2-d]pyrimidin-4-yl)piperazin-1-yl)methyl)-1-oxoisoindolin-2-yl)dihydropyrimidine-2,4(1H,3H)-dione] | B (80%< substrate protein remaining % ≤100%) | B (80%< substrate protein remaining % ≤100%) | B (80%< substrate protein remaining % ≤100%) | A (0% ≤ substrate protein remaining % ≤80%) | B (80%< substrate protein remaining % ≤100%) | A (0% ≤ substrate protein remaining % ≤80%)

— patent US20260356819A1, “OXOISOINDOLINYL-SUBSTITUTED […] DERIVATIVE AND USE THEREOF” (GLUETACS THERAPEUTICS (SHANGHAI) CO., LTD., priority 2023, published 2026)
